# Laboratory results taken from EPA's ToxValDB 9.5.
# Legend:
# Oryctolagus sp. = conditions: reproduction developmental
# Canidae = conditions: oral
# Mus musculus = conditions: for NOAEL: repeat dose other
# Gallus gallus = conditions: for LEL: subchronic, oral, diet, no effects
# Apis mellifera = conditions: acute; dermal; mortality
# Anas platyrhynchos = conditions: acute; oral; unspecified; mortality
# Colinus virginianus = conditions: for LD50: acute, oral, mortality
# Aphidius colemani = experiment: LR50; higher = less toxic; conditions: not reported; mortality
# Bibionidae = conditions: chronic/long-term; duration: 28 days; development
# Daphnia magna = conditions: chronic/long-term; duration: 21 days; mortality
# Pontoscolex corethrurus = conditions: acute; mortality
# Homo sapiens = conditions: clinical
# Oncorhynchus mykiss = conditions: acute; duration: 96 hours; mortality
# Sus scrofa = conditions: short-term; duration: 21 days; oral; diet; Not specified; food consumption
compound,measurement,setting,value
CC1=NNC(=O)N(/N=C/c2cccnc2)C1 [Pymetrozine],NOAEL,Oryctolagus sp.; histopathology: nonneoplastic,10 mg/kg-day
same,NOAEL,"Canidae; chronic, duration: 1 years, Dog Other, clinical chemistry",0.57 mg/kg-day
same,NOAEL,"Canidae; subchronic, duration: 90 days, diet, Beagle, organ weight",3 mg/kg-day
C=C(/C=C\C[C@@H](O)[C@@H](O)[C@H](O)C/C=C/C=C\[C@@H](O)C[C@@H]1O[C@H](C[C@@H](O)[C@H](O)C[C@H]2O[C@H]([C@H](O)[C@H](O)CC[C@H](O)/C=C/[C@H](C)[C@@H](O)C[C@]3(O)O[C@H]([C@@H](O)[C@@H](O)CCCCCCC[C@@]45C[C@@H](C)C[C@@](C)(O4)[C@@H](CCCCCCC[C@@H](O)C[C@H](O)[C@@H](O)[C@@H](O)[C@H]4O[C@H](C[C@H](O)[C@H](O)/C(C)=C/[C@H](O)CC[C@H](O)C(=O)N/C=C/C(=O)NCCCO)[C@H](O)[C@@H](O)[C@@H]4O)O5)C[C@@H](O)[C@H]3O)C[C@@H](O)[C@@H]2O)[C@@H](O)[C@H](O)[C@H]1O)CC[C@H](O)[C@@H](O)[C@H](O)[C@H](C)C[C@H]1O[C@H](/C=C\[C@@H](O)[C@H](O)C[C@@H]2C[C@@H]3C[C@H](O2)[C@@H](CC[C@H]2O[C@H](CN)C[C@H]2O)O3)[C@@H](O)[C@H](O)[C@H]1O [Ostreocin-D],LOAEL,"Mus musculus; acute, oral, gavage, M, ICR, clinical signs",0.2 mg/kg-day
CC(O)C(=O)O (configuration not stated) [Lactic acid],LEL,"Gallus gallus; duration: 42 days, Chicken",30000 mg/kg-day
C=C1C[C@]23C[C@@]1(O)CC[C@H]2[C@@]12C=C[C@H](O)[C@@](C)(C(=O)O1)[C@H]2[C@@H]3C(=O)O [Gibberellic acid],LD50,Apis mellifera,> 25 µg/piece
same,NOEL,Oryctolagus sp.; no effects,1000 mg/kg-day
same,LD50,Anas platyrhynchos,> 2000 mg/kg
same,LD50,"Rattus norvegicus; acute, oral, mortality",> 5000 mg/kg
same,NOEL,"Rattus norvegicus; reproduction developmental, no effects",1000 mg/kg-day
same,NOAEL,"Rattus norvegicus; subchronic, duration: 90 days, oral, organ weight",680 mg/kg-day
same,LD50,Colinus virginianus; diet,> 904 mg/kg-day
same,LR50,Aphidius colemani,> 10 g/ha
COCCOC(=O)C(C#N)(C(=O)c1ccccc1C(F)(F)F)c1ccc(C(C)(C)C)cc1 (configuration not stated) [Cyflumetofen],NOEC,Bibionidae,≥ 0.064 mg/L
same,NOEC,Daphnia magna,0.065 mg/L
same,LC50,"Cyprinus carpio; acute, duration: 96 hours, mortality",> 0.54 µg/mL
same,NOEC,"Cyprinus carpio; chronic/long-term, duration: 28 days, growth",≥ 0.072 mg/L
COc1nccnc1C [2-Methoxy-3-methylpyrazine],LC50,Pontoscolex corethrurus,245 mg/kg
Fc1ccc([C@@]2(Cn3cncn3)O[C@@H]2c2ccccc2Cl)cc1 [Epoxiconazole],LD50,"Rattus norvegicus; acute, mortality",3160 mg/kg
same,NOAEL,Rattus norvegicus; reproduction developmental,2.3 mg/kg-day
same,LD50,Colinus virginianus; diet,> 907 mg/kg
same,LD50,Colinus virginianus,> 2000 mg/kg
same,NOEL,Colinus virginianus; reproduction developmental,1 mg/kg-day
CCc1occc(=O)c1O [2-Ethyl-3-hydroxy-4-pyrone],NOAEL,repeat dose other,200 mg/kg-day
CC1=C[C@H]2O[C@@H]3[C@H](O)[C@@H](O)[C@](C)([C@@]2(CO)[C@H](O)C1=O)[C@]31CO1 [Nivalenol],LOAEL,"Gallus gallus; repeat dose other, organ weight",0.36 mg/kg-day
c1csc(SSc2cccs2)c1 [2-Thienyl disulfide],NOAEL,repeat dose other,0.29 mg/kg-day
same,NOAEL,"Rattus norvegicus; subchronic, duration: 90 days",0.29 mg/kg-day
O=C(NC(=O)c1c(F)cccc1F)Nc1ccc(Cl)cc1 [Diflubenzuron],NOAEL,"Canidae; chronic, duration: 1 years, Dog Other, hematological",10 mg/kg-day
same,LD50,"Rattus norvegicus; acute, dermal, mortality",> 2000 mg/kg
same,LC50,"Rattus norvegicus; acute, duration: 4 hours, inhalation, mortality",> 2.5 µg/mL
same,LD50,"Rattus norvegicus; acute, oral, mortality",> 4640 mg/kg
"CCOC(=O)/C(C)=C/C=C/C(C)=C/C=C/C=C(C)/C=C/C=C(C)/C=C/C1=C(C)CCCC1(C)C [8'-Apo-beta, psi-carotenoid acid, ethyl ester]",LEL,"Gallus gallus; duration: 56 days, F",80 mg/kg-day
same,NOAEL,"Rattus norvegicus; subchronic, histopathology: nonneoplastic",3 mg/kg-day
CC(=O)[O-].CC(=O)[O-].O.O.O.O.[Co+2] [Cobalt(II) acetate tetrahydrate],LOAEL,"Homo sapiens; duration: 22 days, oral, hematological",1 mg/kg-day
C=C(C)[C@H]1CC=C(C)CC1 [D-Limonene],NOAEL,Mus musculus; gross pathology,250 mg/kg-day
same,NOAEL,"Mus musculus; injection, intraperitoneal",215 mg/kg-day
same,NOAEL,"Rattus norvegicus; repeat dose other, histopathology: nonneoplastic",250 mg/kg-day
N#Cc1cc(Br)c(O)c(Br)c1 [Bromoxynil],NOAEL,"Canidae; chronic, duration: 1 years, Dog Other, organ weight",0.3 mg/kg-day
same,NOAEL,"Rattus norvegicus; developmental, development",4 mg/kg-day
NC=O [Formamide],NOAEL,"Oryctolagus sp.; duration: 13 days, oral, gavage, F, New Zealand, reproduction",34 mg/kg-day
O=S(=O)([O-])c1ccc(N=Nc2c(O)ccc3cc(S(=O)(=O)[O-])ccc23)cc1.[Na+].[Na+] [FD&C Yellow 6],NOAEL,"Canidae; chronic, duration: 7 years, F, Dog Other, no effects",500 mg/kg-day
same,NOAEL,"Rattus norvegicus; reproduction developmental, duration: 28 days, oral, diet, body weight",375 mg/kg-day
same,NOAEL,"Rattus norvegicus; subchronic, duration: 90 days, oral, diet, M/F, histopathology: nonneoplastic",500 mg/kg-day
CC(=O)C(C)Sc1ccoc1C (configuration not stated) [3-[(2-Methylfuran-3-yl)sulfanyl]butan-2-one],NOAEL,"subchronic, duration: 90 days",3.76 mg/kg-day
same,NOAEL,"Rattus norvegicus; subchronic, duration: 90 days, oral, diet",3.76 mg/kg-day
CCN(CC)c1nc(C)cc(OP(=S)(OC)OC)n1 [Pirimiphos-methyl],LC50,Oncorhynchus mykiss,0.2 µg/mL
same,NOAEL,"Rattus norvegicus; acute, clinical signs",15 mg/kg-day
same,NOAEL,"Rattus norvegicus; chronic, duration: 2 years, clinical signs",0.4 mg/kg-day
same,NOAEL,"Rattus norvegicus; subchronic, duration: 13 weeks, clinical signs",2.1 mg/kg-day
CN1CCC[C@H]1c1cccnc1 [(-)-Nicotine],LOAEL,"Homo sapiens; injection, intravenous, clinical signs",0.0035 mg/kg-day
CC1=C[C@H]2O[C@@H]3[C@H](O)C[C@](C)([C@@]2(CO)[C@H](O)C1=O)[C@@]31CO1 [Vomitoxin],LOEL,Sus scrofa,0.35 mg/kg-day
"CCc1nccnc1CC [2,3-Diethylpyrazine]",LC50,Pontoscolex corethrurus,236 mg/kg
